Reference: publication PMC6864482, “Novel C7-Substituted Coumarins as Selective Monoamine Oxidase Inhibitors: Discovery, Synthesis and Theoretical Simulation” (Molecules, 2019)
Like-named read-outs stand apart in the source and are kept apart here.

Assays:
hMAO-B = target: T1, hMAO-B (Homo sapiens, UniProt P27338); conditions: previously identified BRS-3D hits, cited from earlier work; for MAO-B pIC50: pIC50 = −log(IC50); for IC50: read-out: MAO-B IC50
T1 sequence (P27338 1-520): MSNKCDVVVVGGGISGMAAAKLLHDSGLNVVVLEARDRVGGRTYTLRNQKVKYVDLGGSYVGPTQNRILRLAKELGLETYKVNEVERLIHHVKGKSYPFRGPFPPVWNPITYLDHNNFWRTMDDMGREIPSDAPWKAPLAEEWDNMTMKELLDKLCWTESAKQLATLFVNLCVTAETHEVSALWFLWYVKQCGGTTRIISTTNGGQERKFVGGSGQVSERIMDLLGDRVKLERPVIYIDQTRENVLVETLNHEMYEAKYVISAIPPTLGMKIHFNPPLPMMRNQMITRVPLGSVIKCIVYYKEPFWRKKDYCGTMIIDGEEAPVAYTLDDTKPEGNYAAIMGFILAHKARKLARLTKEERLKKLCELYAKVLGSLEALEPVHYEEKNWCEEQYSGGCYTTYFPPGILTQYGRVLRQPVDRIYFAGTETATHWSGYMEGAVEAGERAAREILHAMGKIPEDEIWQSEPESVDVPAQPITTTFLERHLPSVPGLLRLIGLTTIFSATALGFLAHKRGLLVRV

hMAO-A = target: T2, hMAO-A (Homo sapiens, UniProt P21397); conditions: previously identified BRS-3D hits, cited from earlier work; for MAO-A pIC50: pIC50 = −log(IC50); for IC50: read-out: MAO-A IC50
T2 sequence (P21397 1-527): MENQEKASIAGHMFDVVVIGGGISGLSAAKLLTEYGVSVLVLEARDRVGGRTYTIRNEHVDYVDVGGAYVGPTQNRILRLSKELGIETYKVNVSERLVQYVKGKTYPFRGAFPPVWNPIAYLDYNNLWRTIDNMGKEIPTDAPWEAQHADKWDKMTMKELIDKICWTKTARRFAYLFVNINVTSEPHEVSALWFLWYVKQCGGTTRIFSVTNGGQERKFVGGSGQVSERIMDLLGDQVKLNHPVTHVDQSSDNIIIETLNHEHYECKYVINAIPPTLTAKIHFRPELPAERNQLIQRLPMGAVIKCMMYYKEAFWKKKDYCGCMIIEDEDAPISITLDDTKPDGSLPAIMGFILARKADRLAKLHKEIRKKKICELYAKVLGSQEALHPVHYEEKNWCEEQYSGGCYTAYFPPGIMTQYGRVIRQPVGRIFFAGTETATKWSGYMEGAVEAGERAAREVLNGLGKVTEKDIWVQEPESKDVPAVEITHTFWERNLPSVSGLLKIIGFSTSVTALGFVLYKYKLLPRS

## Cc1cc(=O)oc2cc(Oc3nnc(-c4ccccc4)s3)ccc12 [M43, 4-Methyl-7-((5-phenyl-1,3,4-thiadiazol-2-yl)oxy)-2H-chromen-2-one]
hMAO-B
  MAO-B Avg. Inh% at 10 uM: 96%
  IC50: 360 nM
hMAO-B; listed as M43 (7a)
  MAO-B pIC50: 6.4
other
  melting point: 124 to 125 °C
hMAO-A; listed as M43 (7a)
  MAO-A pIC50: 6.8
hMAO-A
  IC50: 160 nM

## CCCc1cc(=O)oc2cc(OCC(=O)N(C)C)ccc12 [M31]
hMAO-B
  MAO-B Avg. Inh% at 10 uM: 16%
  MAO-B pIC50: 4.2
  IC50: 64600 nM
hMAO-A
  MAO-A Avg. Inh% at 10 uM: 92%
  MAO-A pIC50: 6.3
  IC50: 500 nM

## Cc1cc(=O)oc2cc(OCC(=O)N(C)C)c(Cl)cc12 [M34]
hMAO-B
  MAO-B Avg. Inh% at 10 uM: 40%
hMAO-A
  MAO-A Avg. Inh% at 10 uM: 19%

## Cc1c(C)c2cc(Cl)c(OCC(=O)N(C)C)cc2oc1=O [M32]
hMAO-B
  MAO-B Avg. Inh% at 10 uM: 90%
  MAO-B pIC50: 6.2
  IC50: 600 nM
hMAO-A
  MAO-A Avg. Inh% at 10 uM: 12%
  MAO-A pIC50: 4.1
  IC50: 81300 nM
